Results taken from patent publication US9388123B2, “LSD1-selective inhibitor having lysine structure” (KYOTO UNIVERSITY, priority 2012, dated 2016).
Structures can show the parent of a compound that is named as a salt.

Assays:
[1] = target: T1, monoamine oxidase A (MAO-A) (Homo sapiens, UniProt P21397); assay: Monoamine oxidase inhibition test (MAO-Glo assay kit); type: biochemical; conditions: room temperature, 1 hour
T1 construct: purchased Sigma-Aldrich
T1 sequence (P21397 1-527): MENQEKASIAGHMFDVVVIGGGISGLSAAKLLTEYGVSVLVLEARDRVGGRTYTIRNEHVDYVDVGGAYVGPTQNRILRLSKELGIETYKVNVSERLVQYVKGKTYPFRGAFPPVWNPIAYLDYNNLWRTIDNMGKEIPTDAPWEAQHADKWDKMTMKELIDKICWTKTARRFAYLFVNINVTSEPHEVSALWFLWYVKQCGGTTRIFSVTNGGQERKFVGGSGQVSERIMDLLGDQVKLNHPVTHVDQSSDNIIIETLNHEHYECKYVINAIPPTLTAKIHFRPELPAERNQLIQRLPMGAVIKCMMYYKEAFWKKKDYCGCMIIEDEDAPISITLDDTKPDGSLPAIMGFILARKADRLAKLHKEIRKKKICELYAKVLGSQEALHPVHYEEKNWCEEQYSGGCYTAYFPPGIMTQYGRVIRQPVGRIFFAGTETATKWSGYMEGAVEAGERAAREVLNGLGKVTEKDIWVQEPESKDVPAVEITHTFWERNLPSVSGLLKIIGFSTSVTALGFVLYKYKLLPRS
Experimental: (§5) To the reaction liquid was added 50 μL of a luciferin detection reagent, and the mixture was subjected to a reaction at room temperature for 20 minutes.

[2] = target: T2, monoamine oxidase B (MAO-B) (Homo sapiens, UniProt P27338); assay: as above; type: biochemical; conditions: room temperature, 1 hour
T2 construct: purchased Sigma-Aldrich
T2 sequence (P27338 1-520): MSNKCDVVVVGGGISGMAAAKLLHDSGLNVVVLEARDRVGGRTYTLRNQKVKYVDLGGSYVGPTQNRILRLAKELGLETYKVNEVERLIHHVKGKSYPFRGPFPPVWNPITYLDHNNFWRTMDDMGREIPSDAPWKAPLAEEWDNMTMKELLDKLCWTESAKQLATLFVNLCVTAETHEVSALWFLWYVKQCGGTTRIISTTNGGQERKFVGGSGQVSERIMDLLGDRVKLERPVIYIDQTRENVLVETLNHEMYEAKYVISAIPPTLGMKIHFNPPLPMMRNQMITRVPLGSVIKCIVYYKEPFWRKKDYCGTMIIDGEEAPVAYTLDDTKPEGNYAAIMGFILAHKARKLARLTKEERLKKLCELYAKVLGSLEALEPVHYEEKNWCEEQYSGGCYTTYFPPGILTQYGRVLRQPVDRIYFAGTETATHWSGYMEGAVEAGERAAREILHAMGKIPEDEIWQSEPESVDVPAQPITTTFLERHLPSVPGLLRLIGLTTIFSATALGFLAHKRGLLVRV
Experimental: as §5

HEL = assay: Leukemia cell growth inhibition evaluation (WST-8); type: cell-based; conditions: Homo sapiens, day 3 (72-hour culture), read-out: Human leukemia cell line GI50 (μM) HEL
Source text: (§1) HL60, THP-1, K562, U937, KGla, HEL, and MDS-L were used as human leukemia cells. The cell lines are cell lines established from various subtypes such as acute myeloid leukemia, acute promyelocytic leukemia, acute monocytic leukemia, acute erythroid leukemia, and myelodysplastic syndromes, which progress to leukemia. Cells obtained by introducing leukemia fusion genes MLL/AF9, MLL/SEPT6, and MLL/ENL into the bone marrow of normal mice with a retrovirus so as to develop leukemia were used as murine leukemia cell lines.
(§2) This assay method involves, as a principle thereof, measuring an absorbance (a peak at from 450 nm to 490 nm) at the time of color development through a reaction of NADH, which is contained in the mitochondria of viable cells, and WST-8 to measure the amount of NADH. Specifically, the assay was performed by the following procedure.
(§3) The cells were plated at 50 μl, i.e., 5,000 cells per well in a 96-well microtiter plate. Next, a test compound dissolved in DMSO was mixed at various concentrations into the same medium, and 50 μl of each of the mixtures was added to each well. A medium was prepared so that the final concentration of the test compound was from 0 μM to 50 μM and so that the addition amount of DMSO was the same, and the cells were cultured in a CO2 incubator. On day 0 before the addition and on day 1, day 2, and day 3 after the addition, WST-8 reagent was added at 20 μl per well, and the cells were cultured for 1 hour in a CO2 incubator. After that, measurement was performed with ARVO X3 (manufactured by PerkinElmer).
(§4) Specifically, an absorbance at 450 nm was measured, an absorbance at 595 nm was measured in the same well, and the absorbance at 595 nm was subtracted from the absorbance at 450 nm to perform background correction for the well itself. Further, a well containing only a medium free of cells was subjected to the same measurement. A value in this case was also subtracted. Thus, the amount of viable cells was represented as a numerical value with correction of the influence of a medicament or a medium as well. Under a condition not containing the test compound (addition of only dimethyl sulfoxide), an exponential increase in number of viable cells on day 1, day 2, and day 3 in the stated order was confirmed.

HL60 = assay: Leukemia cell growth inhibition evaluation (WST-8); type: cell-based; conditions: Homo sapiens, HL-60; day 3 (72-hour culture); read-out: Human leukemia cell line GI50 (μM) HL60
Source text: as §1, §2, §3, §4

KG1a = assay: Leukemia cell growth inhibition evaluation (WST-8); type: cell-based; conditions: Homo sapiens, KG-1a; day 3 (72-hour culture); read-out: Human leukemia cell line GI50 (μM) KG1a
Source text: as §1, §2, §3, §4

MDS-L = assay: Leukemia cell growth inhibition evaluation (WST-8); type: cell-based; conditions: Homo sapiens; day 3 (72-hour culture); read-out: Human leukemia cell line GI50 (μM) MDS-L
Source text: as §1, §2, §3, §4

[3] = test system: MLL/AF9 leukemia cell line; assay: Leukemia cell growth inhibition evaluation (WST-8); type: cell-based; conditions: Mus musculus, day 3 (72-hour culture), read-out: Mouse MLL-fusion leukemia cell line GI50 (μM) MLL/AF9
Source text: as §1, §2, §3, §4

[4] = test system: MLL/SEPT6 leukemia cell line; assay: Leukemia cell growth inhibition evaluation (WST-8); type: cell-based; conditions: Mus musculus; day 3 (72-hour culture); read-out: Mouse MLL-fusion leukemia cell line GI50 (μM) MLL/SEPT6
Source text: as §1, §2, §3, §4

THP1 = assay: Leukemia cell growth inhibition evaluation (WST-8); type: cell-based; conditions: Homo sapiens, THP-1; day 3 (72-hour culture); read-out: Human leukemia cell line GI50 (μM) THP1
Source text: as §1, §2, §3, §4

U937 = assay: Leukemia cell growth inhibition evaluation (WST-8); type: cell-based; conditions: Homo sapiens, U-937; day 3 (72-hour culture); read-out: Human leukemia cell line GI50 (μM) U937
Source text: as §1, §2, §3, §4

[5] = test system: human leukemia cell lines; assay: Leukemia cell growth inhibition evaluation, summary in words; type: cell-based; conditions: Table 5
Source text: as §1, §2, §3, §4

[6] = test system: murine leukemia cell lines; assay: as above; type: cell-based; conditions: Table 6
Source text: as §1, §2, §3, §4

SMILES | IC50 [1] [µM] | IC50 [2] [µM] | GI50 (HEL) [µM] | GI50 (HL60) [µM] | GI50 (KG1a) [µM] | GI50 (MDS-L) [µM] | GI50 [3] [µM] | GI50 [4] [µM] | GI50 (THP1) [µM] | GI50 (U937) [µM] | growth inhibitory / suppressing effect on the human leukemia cell lines (in words) [5] | growth inhibitory / suppressing effect on the murine leukemia cell lines (in words) [6]
O=C(N[C@@H](CCCCNC1CC1c1ccccc1)C(=O)NCc1ccccc1)c1ccc(-c2ccccc2)cc1 (stereo partly drawn) [Example 8, 2-[N-(4-Phenylbenzenecarbonyl)]amino-6-(trans-2-phenylcyclopropan-1-amino)-N-benzylhexanamide Hydrochloride] | 86 | > 100 | < 1.3 | 4 to 5 | ~6.3 | < 1.3 | < 2 | 4 to 5 | 5 to 6 | 4.6 | higher growth suppressing effects on the human leukemia cell lines than Comparative Example 2 | very high growth suppressing effects
O=C(N[C@@H](CCCCNC1CC1c1ccccc1)C(=O)NCc1cccc(C(F)(F)F)c1)c1ccc(-c2ccccc2)cc1 (stereo partly drawn) [Example 19, 2-[N-(4-Phenylbenzenecarbonyl)]amino-6-(trans-2-phenylcyclopropan-1-amino)-N-(3-trifluoromethylbenzyl)hexanamide Hydrochloride] | > 100 | > 100 | ~5 | 2.5 to 5 | 5 to 10 | < 1.3 | < 1.25 | 2.5 to 5 | 5 to 10 | 10 to 20 | higher growth suppressing effects on the human leukemia cell lines than Comparative Example 2 | very high growth suppressing effects
